Paper PMC3238500 (Archives of biochemistry and biophysics, 2011)

Molecular target: pyruvate carboxylase R472S mutant (RePC) (Rhizobium etli, UniProt Q2K340, R472S)
Format: biochemical

For CC(=O)SCCNC(=O)CCNC(=O)[C@H](O)C(C)(C)COP(=O)(O)OP(=O)(O)OC[C@H]1O[C@@H](n2cnc3c(N)ncnc32)[C@H](O)[C@@H]1OP(=O)(O)O [acetyl CoA], the “Ka (activation constant)” value was 1.65 ± 0.05 mM.
